# Experimental data reported in patent US8829213B2, “Liver X receptor agonists” (The University of Chicago, priority 2009, dated 2014).
# Tests used:
# human LXRα or LXRβ = assay: Luciferase-based reporter gene assay for LXR agonism; assay type: cell-based; conditions: HEK293 cells co-transfected with human LXRα or LXRβ, 48 hours
# Method: The ability of Compound 1 to act as an LXR agonist was tested using a luciferase-based reporter gene assay according to the method described in Graham et al., Virology, 1973, 52:456. The assay is described below:
# Wells of a 48-well plate were seeded with 50,000 human embryonic kidney (HEK293) cells in 0.25 mL of Dulbecco's modified Eagle's media containing 10% charcoal-stripped fetal bovine serum (DMEM+10% CS-FBS). HEK293 cells were co-transfected with various plasmid DNAs using a calcium phosphate co-precipitation method (Graham et al., Virology, 1973, 52:456). To each well was added 0.25 mL of a transfection mix (1.36 mL transfection components and 11.5 mL DMEM+10% CS-FBS) containing 60 ng of a firefly luciferase-based reporter plasmid, 60 ng of pSG5 containing human LXRα or LXRβ cDNA, 0.6 ng of the sea pansy luciferase normalization plasmid phRL-TK (Promega), and 220 ng of pBS/SK+II. […] Firefly and sea pansy luciferase activities in the lysate were measured using a dual luciferase assay (Promega) and a Monolight luminometer. […] Fold activation of the firefly luciferase reporter plasmid was calculated from normalized relative light units in the presence and absence of the test compound.
# LDLR−/− mice [1] = assay: Atherosclerotic lesion quantification in LDLR−/− mice fed an atherogenic diet; assay type: in vivo; conditions: 8 weeks
# Method: (§1) Eight-week old male LDLR−/− mice on a C57BL/6 background (obtained from Jackson Laboratory) were fed an atherogenic diet (TD94059, Harlan TEKLAD, Madison, Wis.) for 8 weeks. During the same period, the mice received Compound 1 daily by gavage at a dose of 3 or 5 mg/kg in a microemulsion prepared by the method described in Gao et al., Int J Pharm 1998, 161:75-86). The control group (vehicle) received a microemulsion without Compound 1. After 8 weeks, the mice were fasted for 4 hours and anesthetized with ketamine (100 mg/kg) and xylazine (10 mg/kg). A blood sample was collected from the retro-orbital plexus of each mouse. 200 μl of plasma was fractionated on tandem Superose 6 fast protein liquid chromatography columns (Reardon et al., 2001). Cholesterol and triglyceride in the even-numbered fast protein liquid chromatography fractions and in plasma samples were measured using commercial kits (Stanbio Laboratory, Boerne, Tex.).
# The mice were then perfused transcardially with PBS and then paraformaldehyde. The hearts and upper vasculatures were removed and prepared for histology as described in Reardon et al., Arterioscler Thromb Vasc Biol 2001, 21:1011-1016.
# Lesions in the innominate artery were quantified using 4 digitally captured oil red O-stained 10 μm sections, separated by 100 μm and located 150-450 μm distal to the branch point of the innominate artery from the aortic arch. Lesions in the ascending thoracic aorta were assessed from three sections separated by 100 μm and located 100-300 μm below the apex of the lesser curvature of the aortic arch. Aortic sinus lesions were evaluated from 3 sections, separated by 100 μm and beginning at the site of appearance of the coronary artery. OpenLab software version 3.1.5 was used in the quantification.
# LDLR−/− mice [2] = assay: Reduction of plasma cholesterol and triglyceride levels in LDLR−/− mice fed an atherogenic diet; assay type: in vivo; conditions: 8 weeks
# Method: as §1
# [3] = daily gavage 3 or 5 mg/kg, vs vehicle
smiles,measurement,setting,value
CC(/C=C/C(O)(C(F)(F)F)C(F)(F)F)C1CCC2C3C[C@H](O)[C@@H]4C[C@H](O)CCC4(C)C3CCC12C (some centres unmarked) [Compound 1],LXR agonist activity (fold activation of firefly luciferase reporter),human LXRα or LXRβ,very effective LXR agonist
same,"mean atherosclerotic lesion area, aortic root",LDLR−/− mice [1]; 3 mg/kg/day,significantly reduced
same,"atherosclerotic plaque size, ascending aorta arch",LDLR−/− mice [1]; 5 mg/kg/day,significantly reduced
same,"atherosclerotic plaque size, innominate artery",LDLR−/− mice [1]; 5 mg/kg/day,significantly reduced
same,"mean atherosclerotic lesion area, aortic root",LDLR−/− mice [1]; 5 mg/kg/day,significantly reduced
same,HDL cholesterol level,LDLR−/− mice [2]; 3 mg/kg daily gavage,not
same,VLDL cholesterol level,LDLR−/− mice [2]; 3 mg/kg daily gavage,reduced
same,triglyceride levels,LDLR−/− mice [2]; 3 mg/kg daily gavage,reduced
same,HDL cholesterol level,LDLR−/− mice [2]; 5 mg/kg daily gavage,not
same,LDL cholesterol level,LDLR−/− mice [2]; 5 mg/kg daily gavage,reduced
same,VLDL cholesterol level,LDLR−/− mice [2]; 5 mg/kg daily gavage,reduced
same,triglyceride levels,LDLR−/− mice [2]; 5 mg/kg daily gavage,reduced
same,cholesterol level in the blood,LDLR−/− mice [2]; [3],marked decrease
same,triglyceride level in the blood,LDLR−/− mice [2]; [3],marked decrease
